Assay [1] deals with chimera RXFP2-1 (extracellular domain of RXFP2, transmembrane domain of RXFP1) (human). Further details: EC50 of the cAMP response (HTRF cAMP assay, transiently transfected HEK293T cells): unit not given beside the values.
The target of the next assay is T1, human RXFP1 (Homo sapiens, UniProt Q9HBX9).
T1 construct: FLAG (N); expressed in transfected cells
T1 sequence (Q9HBX9 1-757): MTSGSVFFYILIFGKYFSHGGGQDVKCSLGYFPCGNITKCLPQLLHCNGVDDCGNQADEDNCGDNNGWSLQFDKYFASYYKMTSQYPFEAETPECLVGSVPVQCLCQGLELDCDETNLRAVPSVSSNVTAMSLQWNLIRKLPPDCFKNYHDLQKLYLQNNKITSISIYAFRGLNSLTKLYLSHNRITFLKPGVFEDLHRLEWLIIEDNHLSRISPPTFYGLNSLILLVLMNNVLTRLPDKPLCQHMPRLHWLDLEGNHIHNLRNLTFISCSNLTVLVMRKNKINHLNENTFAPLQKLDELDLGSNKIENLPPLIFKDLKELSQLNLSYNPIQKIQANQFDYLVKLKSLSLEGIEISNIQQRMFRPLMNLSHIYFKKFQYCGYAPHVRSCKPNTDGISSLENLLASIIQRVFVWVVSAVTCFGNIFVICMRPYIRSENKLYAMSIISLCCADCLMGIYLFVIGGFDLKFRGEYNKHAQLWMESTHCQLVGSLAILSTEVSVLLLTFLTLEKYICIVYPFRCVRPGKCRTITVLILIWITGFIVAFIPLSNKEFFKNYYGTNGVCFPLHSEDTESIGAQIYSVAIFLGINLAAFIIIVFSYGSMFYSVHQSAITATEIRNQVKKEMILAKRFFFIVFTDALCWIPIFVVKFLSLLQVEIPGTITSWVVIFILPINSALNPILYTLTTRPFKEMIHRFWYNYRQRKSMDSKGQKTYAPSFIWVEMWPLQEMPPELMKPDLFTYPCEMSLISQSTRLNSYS
Put plainly: HTRF cAMP counter-screen in HEK293T cells expressing human RXFP1. The format is cell-based. Conditions: human RXFP1, positive control, experiments (1)-(3). As to the method:
(§1) The HTRF Gs dynamic cAMP assay kit (CisBio, Bedford, MA) was used to measure intracellular cAMP accumulation in HEK293T cells (ATCC, Manassas, VA)[56]. […] The cell stock was verified mycoplasma free and authenticated by ATCC. Transient transfection was accomplished by treating cells in a 6-well plate with a mixture of 2 μg plasmid and 6 μL Lipofectamine 2000 (Invitrogen, Waltham, MA) per manufacturer’s protocol and incubating overnight. For cAMP measurement in 96-well format, HEK293T cells stably transfected with human RXFP2 (HEK-RXFP2), human RXFP1 (HEK-RXFP1), mouse Rxfp1 (HEK-Rxfp1) or transiently transfected with human RXFP1-RXFP2 chimeric receptors were seeded between 7500 and 30,000 cells per well, depending on cell line responsiveness, in serum-free DMEM medium and incubated overnight at 37 °C, 5% CO2. After 18 h, cells were treated with a titration of compound, 2 μM forskolin, or DMSO vehicle. Control wells were also treated with a titration of INSL3 (Phoenix Pharmaceuticals, Burlingame, CA) or human recombinant relaxin 2 (Peprotech, Cranbury, NJ). For the RXFP2 antagonist experiment, cells were co-treated with 0.28 μM compound or 30 nM INSL3 and a titration of the INSL3 B dimer antagonist[38],[39]. For the INSL3 allosteric modulation experiment, cells were co-treated with 0.025, 0.0025, or 0.00025 μM of compound and a titration of INSL3. Cells were incubated for 1 h at 37 °C, 5% CO2, and then kit cAMP-d2 and anti-cAMP antibody were added per manufacturer protocol. Plates were incubated for 1 h at room temperature and the signal was read on a CLARIOstar plate reader (BMG Labtech, Ortenberg, Germany) at 665 and 620 nm emission wavelengths. […]
(§2) receptors. HTRF cAMP counter-screen of RXFP2 agonists in HEK293T cells expressing a human RXFP1 and b mouse RXFP1. Relaxin 2 was used as positive control for RXFP1 receptor activation. Results are expressed as mean ± SEM of 3
Background: In TR-FRET formats the signal depends on donor and acceptor labels being close together.

The target of a further assay is T2, mouse RXFP1 (Mus musculus, UniProt Q6R6I7).
T2 construct: FLAG (N); expressed in transfected cells
T2 sequence (Q6R6I7 1-758): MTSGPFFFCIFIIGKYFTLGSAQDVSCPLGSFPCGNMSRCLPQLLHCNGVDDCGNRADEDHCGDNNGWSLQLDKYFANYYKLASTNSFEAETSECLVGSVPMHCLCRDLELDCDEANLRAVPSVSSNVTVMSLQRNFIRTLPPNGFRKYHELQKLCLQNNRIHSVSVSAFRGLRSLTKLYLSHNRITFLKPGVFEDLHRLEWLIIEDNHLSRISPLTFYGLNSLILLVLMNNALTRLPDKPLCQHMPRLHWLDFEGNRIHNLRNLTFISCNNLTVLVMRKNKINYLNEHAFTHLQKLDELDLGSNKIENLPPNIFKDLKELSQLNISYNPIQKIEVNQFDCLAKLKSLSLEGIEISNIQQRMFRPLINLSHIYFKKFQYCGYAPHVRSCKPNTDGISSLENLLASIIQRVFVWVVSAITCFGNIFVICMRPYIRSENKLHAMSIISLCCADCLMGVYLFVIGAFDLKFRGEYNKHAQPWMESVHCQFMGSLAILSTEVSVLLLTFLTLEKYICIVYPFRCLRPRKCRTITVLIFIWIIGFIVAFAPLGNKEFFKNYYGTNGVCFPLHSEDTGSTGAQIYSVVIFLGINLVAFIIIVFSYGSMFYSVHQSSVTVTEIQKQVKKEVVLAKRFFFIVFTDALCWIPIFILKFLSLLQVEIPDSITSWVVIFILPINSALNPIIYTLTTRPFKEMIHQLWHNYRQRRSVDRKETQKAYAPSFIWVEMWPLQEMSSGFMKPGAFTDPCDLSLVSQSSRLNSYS
Put plainly: HTRF cAMP counter-screen in HEK293T cells expressing mouse RXFP1. Conditions: mouse RXFP1, positive control, experiments (1)-(3). The format is cell-based. The procedure: as §1, §2

Several values for one entry are separate records, joined by “and”; a condition that tells them apart may be missing. Identical values can stand only once.

As for “insulin-like factor 3 peptide (INSL3) (ligand)”, in assay [1], the EC50 of the cAMP response (HTRF cAMP assay, transiently transfected HEK293T cells) came out at 0.74 and the Emax of the cAMP response (HTRF cAMP assay, transiently transfected HEK293T cells; normalized to 2 µM FSK as 100% efficacy) came to 92.3.

Turning to Relaxin, the “% Eff (cAMP)” value on human RXFP1 (Log [M] -7) was 514.186% and 485.16% and 431.341%; on human RXFP1 (Log [M] -8) it was 600.088% and 494.195% and 523.956%; at human RXFP1 (Log [M] -9), 370.096% and 250.531% and 374.784%; on human RXFP1 (Log [M] -11), -0.2294% and 1.737% and 3.775%; on mouse RXFP1 (Log [M] -7), 488.966% and 468.543% and 521.705%; at mouse RXFP1 (Log [M] -8), 318.502% and 312.701% and 407.269%. The “% Eff (cAMP)” value at mouse RXFP1 (Log [M] -9) was 105.124% and 102.88% and 64.6466%; at mouse RXFP1 (Log [M] -10) it was 7.396% and 8.915% and 6.254%; on mouse RXFP1 (Log [M] -11), 0.7539% and 1.08% and 0.2993%.

Values taken from article PMC9636434, “Discovery of small molecule agonists of the Relaxin Family Peptide Receptor 2” (Communications Biology, 2022).
